Measurements taken from US10597392B2, “Tetrahydropyridopyrazines as modulators of GPR6” (Takeda Pharmaceutical Corporation Limited, priority 2014, dated 2020).

Columns and labels:
[1] = target: T1, GPR6 receptor expressed in CHO-K1 cells (Homo sapiens, UniProt P46095); test: Inhibition of cAMP Activity of GPR6 In Vitro Assay; assay type: cell-based; conditions: inhibition of constitutive cAMP activity of GPR6 in CHO-K1 cells, 45 min incubation, HTRF cAMP detection
T1 construct: expressed in transfected cells
T1 sequence (P46095 whole entry): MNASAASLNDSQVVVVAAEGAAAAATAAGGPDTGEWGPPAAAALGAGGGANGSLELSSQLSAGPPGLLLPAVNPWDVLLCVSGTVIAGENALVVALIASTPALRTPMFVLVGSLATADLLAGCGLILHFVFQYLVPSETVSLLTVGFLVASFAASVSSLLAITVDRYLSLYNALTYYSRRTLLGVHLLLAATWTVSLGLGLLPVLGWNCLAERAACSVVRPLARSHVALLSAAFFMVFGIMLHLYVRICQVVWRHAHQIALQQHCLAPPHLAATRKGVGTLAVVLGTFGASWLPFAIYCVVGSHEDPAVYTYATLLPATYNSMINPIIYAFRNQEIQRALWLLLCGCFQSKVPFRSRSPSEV
Description: Inhibition of cAMP Activity of GPR6 In Vitro Assay
This cell based assay measures the ability of compounds to inhibit the constitutive cAMP activity of GPR6 receptor expressed in CHO-K1 cells. CHO cells were stably expressed with GPR6 receptor, whose expression is controlled by a tetracycline inducable element. The cells were cultured in medium containing F12K, 10% FBS, 1% Penn/Strep, 200 ug/mL Hygromycin. GPR6 receptor expression was induced for 20 hrs with 2 µg/ml doxycycline (sigma D9891) in growth media. After addition of doxycycline cells were plated at a density of 450-750 cells per well in 96-well half-volume black tissue culture plates (Costar) and placed in an incubator (37°, 5% CO2) for 20 hours prior to cAMP assays.
Culture media was removed from cells and they were washed with 50 µL/well of Ringer's Buffer (MgCl2 0.047 mg/mL, NaH2PO4 0.18 mg/mL, Na2HPO4 0.1 mg/mL, KCl 0.34 mg/mL, NaHCO3 1.26 mg/mL, D-glucose 1.8 mg/mL, NaCl 7 mg/mL; pH=7.4). Compounds suspended in DMSO were diluted in Ringer's Buffer containing 0.5% fatty acid free BSA plus 300 μM IBMX and incubated on cells for 45 min at 37° and 5% CO2. After incubation cells were incubated for 10 min at room temp with Eu-cAMP tracer solution from a Perkin Elmer Lance HTRF Ultra cAMP assay kit (TRF0263). Then ULight™-anti-cAMP solution from the Lance HTRF kit was added and incubated on a shaker at room temp for 1 hour prior to HTRF detection in a Perkin Elmer Envision plate reader.
IC50 curves were generated with a four-parameter logistic equation using GraphPad Prism 5.03.

[2] = system: Haloperidol-Induced Catalepsy; test: Haloperidol-Induced Catalepsy, In Vivo Rodent Parkinson's Disease Model; conditions: Rat, sc
Description: Haloperidol-Induced Catalepsy—In Vivo Rodent Parkinson's Disease Model
The motor symptoms of Parkinson's disease include akinesia, bradykinesia, rigidity, tremor and postural abnormalities and are associated with the loss of nigral dopaminergic cells and a decline in striatal dopamine levels. Administration of haloperidol to rodents leads to a transient parkinsonian-like state that is reversed by the administration of L-Dopa (Duty, S.; Jenner, P. Br. J. Pharmacol. (2011), 164, 1357-1391) and other drugs that have been clinically validated for the treatment of Parkinson's disease. Haloperidol antagonizes dopamine D2 and, to a lesser extent, D1 receptors in medium spiny neurons that comprise the indirect and direct pathways of the motor circuit respectively. The resultant block of striatal dopamine transmission results in abnormal downstream firing within the basal ganglia circuits that is manifest as symptoms of muscle rigidity and catalepsy. Catalepsy has been postulated to reflect the clinical features of Parkinson's disease, whereby patients experience an inability of to initiate movements.
Male Sprague-Dawley rats (Charles River, Calco, Italy) weighing 175-200 g are used. Alternatively, male C57Bl6 mice weighing 25-35 g were used. The cataleptic state was induced by the subcutaneous administration of the dopamine receptor antagonist haloperidol (0.3 mg/kg, sc), 90 min before testing the animals on the vertical grid test. […] The time span from placement of the paws until the first complete removal of one paw (descent latency) was measured maximally for 120 sec for rats. For mice, the front paws of a mouse was placed on a horizontal metal bar raised 2″ above a Plexiglas platform and time was recorded for up to 30 seconds per trial. […]
Catalepsy was measured 30 min, […], and/or […] after dosing the subjects a 1.0 mg/kg i.p. dose of haloperidol along with the GPR6 modulator test compound. Test compound plasma and brain levels were determined by collected tissue samples at the end of the experiment, which was either at the 120 or 240 min time point. […]

COc1ccc(CN2CCN(c3nc4cc(C)ncc4nc3N[C@H]3CCOC3)CC2)c(F)c1 [Example 45, (S)-2-(4-(2-fluoro-4-methoxybenzyl)piperazin-1-yl)-7-methyl-N-(tetrahydrofuran-3-yl)pyrido[3,4-b]pyrazin-3-amine]
EC50 [1]: > 1000 nM

Cc1cc2nc(NC(C)C)c(N3CCC(Oc4ccc(F)cc4F)CC3)nc2cn1 [Example 2, 3-(4-(2,4-difluorophenoxy)piperidin-1-yl)-N-isopropyl-7-methylpyrido[3,4-b]pyrazin-2-amine]
EC50 [1]: 16.5 nM

COc1ccc(CN2CCN(c3nc4cnc(C)cc4nc3N[C@H]3CCOC3)CC2)c(F)c1 [Example 25, (S)-3-(4-(2-fluoro-4-methoxybenzyl)piperazin-1-yl)-7-methyl-N-(tetrahydrofuran-3-yl)pyrido[3,4-b]pyrazin-2-amine]
EC50 [1]: 278 nM

Cc1cc2nc(N3CCC(Oc4ccc(F)cc4F)CC3)c(NC(C)C)nc2cn1 [Example 35, 2-(4-(2,4-difluorophenoxy)piperidin-1-yl)-N-isopropyl-7-methylpyrido[3,4-b]pyrazin-3-amine]
EC50 [1]: 66.4 nM

Cc1cc2nc(NC3CC3)c(N3CCN(Cc4ccc(OC(F)F)cc4F)CC3)nc2cn1 [Example 27, N-cyclopropyl-3-(4-(4-(difluoromethoxy)-2-fluorobenzyl)piperazin-1-yl)-7-methylpyrido[3,4-b]pyrazin-2-amine]
EC50 [1]: 446 nM

Cc1cc2nc(N[C@@H]3CCOC3)c(N3CCN(Cc4ccc(OC(F)F)cc4F)CC3)nc2cn1 [Example 28, (R)-3-(4-(4-(difluoromethoxy)-2-fluorobenzyl)piperazin-1-yl)-7-methyl-N-(tetrahydrofuran-3-yl)pyrido[3,4-b]pyrazin-2-amine]
EC50 [1]: > 1000 nM

Cc1cc2nc(N3CCC(Oc4ccc(OC(F)F)cc4F)CC3)c(N[C@@H]3CCOC3)nc2cn1 [Example 40, (R)-2-(4-(4-(difluoromethoxy)-2-fluorophenoxy)piperidin-1-yl)-7-methyl-N-(tetrahydrofuran-3-yl)pyrido[3,4-b]pyrazin-3-amine]
EC50 [1]: > 1000 nM

Cc1cc2nc(N[C@H]3C[C@@H](O)C3)c(N3CCN(Cc4ccc(F)cc4F)CC3)nc2cn1 [Example 10, cis-3-((3-(4-(2,4-difluorobenzyl)piperazin-1-yl)-7-methylpyrido[3,4-b]pyrazin-2-yl)amino)cyclobutanol]
EC50 [1]: 69.3 nM

Cc1cc2nc(N3CCN(Cc4ccc(F)cc4F)CC3)c(NC3CC3)nc2cn1 [Example 31, N-cyclopropyl-2-(4-(2,4-difluorobenzyl)piperazin-1-yl)-7-methylpyrido[3,4-b]pyrazin-3-amine 2,2,2-trifluoroacetate]
EC50 [1]: 188 nM

Cc1cc2nc(NC3CC3)c(N3CCN(Cc4ccc(F)cc4F)CC3)nc2cn1 [Example 7, N-cyclopropyl-3-(4-(2,4-difluorobenzyl)piperazin-1-yl)-7-methylpyrido[3,4-b]pyrazin-2-amine]
% reversal at 90 min ([2]; dose 1 mg/kg): 33.5%
% reversal at 90 min ([2]; dose 10 mg/kg): 63.6%
% reversal at 90 min ([2]; dose 30 mg/kg): 42.8%

Cc1cc2nc(N[C@H]3C[C@H](F)C3)c(N3CCC(Oc4ccc(F)cc4F)CC3)nc2cn1 [Example 11, trans-3-(4-(2,4-difluorophenoxy)piperidin-1-yl)-N-(3-fluorocyclobutyl)-7-methylpyrido[3,4-b]pyrazin-2-amino]
EC50 [1]: 61.4 nM

Cc1cc2nc(N[C@@H]3CCOC3)c(N3CCC(Oc4ccc(F)cc4F)CC3)nc2cn1 [Example 5, (R)-3-(4-(2,4-difluorophenoxy)piperidin-1-yl)-7-methyl-N-(tetrahydrofuran-3-yl)pyrido[3,4-b]pyrazin-2-amine]
EC50 [1]: 30.1 nM

Cc1cc2nc(N[C@H]3CCOC3)c(N3CCC(Oc4ccc(OC(F)F)cc4F)CC3)nc2cn1 [Example 21, (S)-3-(4-(4-(difluoromethoxy)-2-fluorophenoxy)piperidin-1-yl)-7-methyl-N-(tetrahydrofuran-3-yl)pyrido[3,4-b]pyrazin-2-amine]
EC50 [1]: 162 nM

Cc1cc2nc(N3CCN(Cc4ccc(OC(F)F)cc4F)CC3)c(N[C@@H]3CCOC3)nc2cn1 [Example 48, (R)-2-(4-(4-(difluoromethoxy)-2-fluorobenzyl)piperazin-1-yl)-7-methyl-N-(tetrahydrofuran-3-yl)pyrido[3,4-b]pyrazin-3-amine]
EC50 [1]: > 1000 nM
